According to patent publication US11554133B2, “Bile acid synthesis promoter, composition for promoting bile acid synthesis and food composition for promoting bile acid synthesis” (KRACIE HOLDINGS, LTD., priority 2017, dated 2023):

How the values were obtained:
[1] = system: bile acid in feces; assay: Measurement of the amount of bile acid in feces (UPLC-MS/MS) of db/db mice fed arctigenin diet; type: in vivo; settings: 0.2% arctigenin in purified diet for nine weeks, pooled feces at end of administration
Method: (§1) Using 5-week-old male db/db mice (BKS.Cg−+Leprdb/+Leprdb/Jcl, purchased from CLEA Japan, Inc.) that were leptin receptor-deficient model, the experiments were started after one-week preliminary rearing. The animals were reared under the environment of 23.0±5° C. of temperature, 50.0±10% of humidity and 12 hours of light-dark cycle. The animal experiments were approved by animal care and use committee of Keio University and carried out based on animal experiment rules of Keio University.
(§2) After preliminary rearing, mice were divided into two groups of (a) control group and (b) arctigenin administrated group (AG group) (each group n=8), and made AG group intake purified diet combined with arctigenin (>98.0%) 0.2% and purified diet (AIN-93G) for control group freely for nine weeks. After administration, 18-hour fasting was performed, and blood specimens were collected from abdominal vena cava under anesthesia, and the liver and the small intestine were sampled.
Feces were collected from the rearing cage of each group at the end of the administration period, and the amount of bile acid in feces was measured. 10 mg of dry powder of pooled feces was suspended in 0.2 mL of 90% ethanol and incubated at 65° C. for 1 hour, and the supernatant after centrifugation and the washing of the precipitates were collected together. […]

[2] = system: total cholesterol in the liver; assay: Measurement of total cholesterol in liver of db/db mice fed arctigenin diet; type: in vivo; settings: 0.2% arctigenin in purified diet for nine weeks, liver lipid extract
Method: Using 5-week-old male db/db mice (BKS.Cg−+Leprdb/+Leprdb/Jcl, purchased from CLEA Japan, Inc.) that were leptin receptor-deficient model, the experiments were started after one-week preliminary rearing. The animals were reared under the environment of 23.0±5° C. of temperature, 50.0±10% of humidity and 12 hours of light-dark cycle. The animal experiments were approved by animal care and use committee of Keio University and carried out based on animal experiment rules of Keio University. After preliminary rearing, mice were divided into two groups of (a) control group and (b) arctigenin administrated group (AG group) (each group n=8), and made AG group intake purified diet combined with arctigenin (>98.0%) 0.2% and purified diet (AIN-93G) for control group freely for nine weeks. After administration, 18-hour fasting was performed, and blood specimens were collected from abdominal vena cava under anesthesia, and the liver and the small intestine were sampled. Homogenate the liver obtained from each group and extracted total lipid using a lipid extraction kit (Lipid Extraction Kit (Chloroform-Free), Cell Biolabs, Inc.). A total cholesterol level was measured from lipid extract using cholesterol E-test Wako (Wako Pure Chemical Corporation). FIG. 2 is a graph showing the amount of total cholesterol in the liver (mg/dL) in control group and AG group. […]

[3] = system: Cyp8b1 of the liver; assay: Liver Cyp8b1 mRNA expression by qPCR; type: in vivo; settings: db/db mice, 0.2% arctigenin diet nine weeks, qPCR vs 18S rRNA, Student's t-test
Method: as §1, §2
(§3) After having performed extraction of total RNA from the obtained organs and cDNA synthesis on each group, the expression level of Cyp8b1, SHP, FXR and FGF4R of the liver which are the liver cholesterol metabolism-related genes and small intestinal FGF15 and SHP were compared by qPCR. As control, 18S rRNA was used. […]

[4] = system: SHP of the liver; assay: Liver SHP mRNA expression by qPCR; type: in vivo; settings: db/db mice, 0.2% arctigenin diet nine weeks, qPCR vs 18S rRNA, Student's t-test
Method: as §1, §2, §3

[5] = system: FXR of the liver; assay: Liver FXR mRNA expression by qPCR; type: in vivo; settings: db/db mice, 0.2% arctigenin diet nine weeks, qPCR vs 18S rRNA, Student's t-test
Method: as §1, §2, §3

[6] = system: FGF4R of the liver; assay: Liver FGF4R mRNA expression by qPCR; type: in vivo; settings: db/db mice, 0.2% arctigenin diet nine weeks, qPCR vs 18S rRNA, Student's t-test
Method: as §1, §2, §3

[7] = system: small intestinal FGF15; assay: Small intestinal FGF15 mRNA expression by qPCR; type: in vivo; settings: db/db mice, 0.2% arctigenin diet nine weeks, qPCR vs 18S rRNA
Method: as §1, §2, §3

[8] = system: small intestinal SHP; assay: Small intestinal SHP mRNA expression by qPCR; type: in vivo; settings: db/db mice, 0.2% arctigenin diet nine weeks, qPCR vs 18S rRNA
Method: as §1, §2, §3

[9] = general statement, no test described; cited from earlier work

COc1cc(C[C@H]2C(=O)OC[C@@H]2Cc2ccc(OC)c(OC)c2)ccc1O [arctigenin]
amount of total bile acid in feces in comparison with control group [1]: large amount | amount of total cholesterol in the liver versus control group [2]: little amount | relative mRNA expression level of Cyp8b1 of the liver in comparison with control group [3]: significantly high | relative mRNA expression level of SHP of the liver in comparison with control group [4]: significantly low | relative mRNA expression level of FXR of the liver in comparison with control group [5]: significantly low | relative mRNA expression level of FGF4R of the liver in comparison with control group [6]: significantly low | relative mRNA expression level of small intestinal FGF15 in comparison with control group [7]: low | relative mRNA expression level of small intestinal SHP in comparison with control group [8]: low | solubility in water [9]: water-insoluble
